From patent US10766882B2, “1,2-naphthoquinone based derivative and method of preparing the same” (YUNGJIN PHARM. CO., LTD., priority 2013, dated 2020)

Tests used:
[1] = target: NQO1 protein (Homo sapiens, UniProt P15559); assay: NQO1 activity measurement (cytochrome C reduction); format: biochemical; conditions: 5 ng NQO1 protein, 200 μM NADH, 77 μM cytochrome C, 37° C., absorbance 550 nm for 10 minutes
[2] = test system: C57BLKS/J db/db mice; assay: Weight loss effects and blood sugar in diabetic mice (db/db); format: in vivo; conditions: four weeks, vs 0.1% SLS controls
Protocol: (§1) 7 week-old C57BLKS/J db/db mice (chales river laboratories Japan, Inc) having genetic diabetic characteristics available from ORIENTBIO were prepared. Two mice were raised in each polycarbonate breeding cage (200 W×260 L×130H (mm), Three-shine) in which temperature was 22 to 24° C., relative humidity was 30 to 50%, illuminance was 150 to 300 lux, night and day were 12 hours, and exhaust was performed at 10 to 15 air changes per hour. As a feed, low fat diet (11.9 kcal % fat, 5053, Labdiet) manufactured by ORIENTBIO was used. The feed was contained in a feeder and free intake was allowed. As drinking water, water, which was contained in a 250 mL polycarbonate based bottle, purified through a filter and a sterilizer was used and free intake was allowed.
The compound according to Example 1 synthesized in the present invention was orally administered to three C57BLKS/J db/db mice in amounts of 40 mg/kg, 80 mg/kg, and 120 mg/kg, respectively, once every day for four weeks. For administration, a disposable syringe fitted with a sonde for oral administration was used and 10 ml/kg of the compound was orally administered into the stomach. As controls, three C57BLKS/J db/db mice were administered 0.1% SLS in an amount of 120 mg/kg in the same manner as described above. After administration, a time-dependent weight increase ratio, weight change, and intake amount were measured and results are illustrated in FIG. 7 below. In addition, blood sugar was measured and results are illustrated in FIG. 8 below.
Weights of the experimental animals were measured immediately before administration of a test material and six times a week from an administration initiation day to a test termination day. Increased total weights were calculated by subtracting weights measured on an experiment initiation day from weights measured one day before an experiment termination day. Food intake amounts were calculated by measuring feed supply amounts and remaining amounts twice a week from an initiation day of test material administration to a test termination day for each individual. Blood sugar was measured before an administration initiation day of the test material and once a week between an administration initiation day and a test termination day.

[3] = test system: C57BLKS/J db/db mice; assay: Glucose level and glycosylated hemoglobin (Hb1Ac) in fasted diabetic mice (db/db); format: in vivo; conditions: Exp. Ex. 5, FIG. 9: 10 week-old db/db mice, 40, 80, 120 mg/kg oral, fasted for 14 hours, vs 0.1% SLS controls
Protocol: as §1, with “10 week-old” for “7 week-old”, “mice” for “mice (chales river laboratories Japan, Inc)”, “genetic obesity” for “genetic diabetic”
The compound according to Example 1 synthesized in the present invention was orally administered to three C57BLKS/J db/db mice in amounts of 40 mg/kg, 80 mg/kg, and 120 mg/kg, respectively. For administration, a disposable syringe fitted with a sonde for oral administration was used and 10 ml/kg of the compound was orally administered into the stomach. As controls, three C57BLKS/J db/db mice were administered 0.1% SLS in an amount of 120 mg/kg in the same manner as described above. After administration, the mice were fasted for 14 hours and glucose levels and glycosylated hemoglobin thereof were measured. Results are illustrated in FIG. 9 below.

[4] = Exp. Ex. 4, FIG. 7: 7 week-old db/db mice, 40, 80, 120 mg/kg oral once every day

NQO1 protein, sequence (P15559 whole entry, species assumed): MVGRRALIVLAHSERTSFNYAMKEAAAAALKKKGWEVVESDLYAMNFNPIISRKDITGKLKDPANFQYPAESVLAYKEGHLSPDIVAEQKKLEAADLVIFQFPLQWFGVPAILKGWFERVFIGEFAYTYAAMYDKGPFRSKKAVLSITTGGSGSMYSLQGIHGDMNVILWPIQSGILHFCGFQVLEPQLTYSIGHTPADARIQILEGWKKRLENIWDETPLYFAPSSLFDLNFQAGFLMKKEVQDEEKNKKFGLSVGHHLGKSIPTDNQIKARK

Q: For `CC(C)c1nc2c([nH]1)C(=O)C(=O)c1ccccc1-2` [Example 1, 2-isopropyl-1H-naphtho[2,1-d]imidazole-4,5-dione], which “NQO1 activity (5 μM, [nmol cytochrome C reduced/min/μg protein])” value [1] is on record?
A: 177 nmol cytochrome C reduced/min/μg protein

Q: And the intake amount [2, 4]?
A: significantly decreased

Q: And the weight change [2, 4]?
A: significantly decreased

Q: And the weight increase ratio [2, 4]?
A: significantly decreased

Q: And the blood sugar amount ([2]; Exp. Ex. 4, FIG. 8: 7 week-old db/db mice, 40, 80, 120 mg/kg oral once every day, measured once a week)?
A: significantly decreased

Q: What about the glucose level [3] of the same compound?
A: significantly decreased

Q: And the “glycosylated hemoglobin (Hb1Ac)” value [3]?
A: significantly decreased
